Experimental findings from patent US5756355A, “Lipid membrane sensors” (Ecole Polytechnique Federale de Lausanne, priority 1992, dated 1998) are described below.

Molecules are shown by their SMILES.

A short description of assay [1]: Current responses of the lipid bilayer without receptor (pure lipid layer). Conditions: for alterations of the electrical properties of the lipid layer without receptor: same concentration range as with receptor; for Icap current response / Ifarad current response: pure lipid layer without receptor. On the procedure:
For comparison, a corresponding lipid bilayer without the receptor protein was formed by completing the imperfect thiolipid monolayer on the gold electrode with the corresponding pure phospholipid/detergent solution.
The same experiment was performed using a lipid layer without receptor.
The same experiment was performed using the lipid bilayer without receptor.
A large (geometrical area about 1 cm^2) AgCl-coated Ag wire served as the counter/reference electrode and was fixed at a defined distance from the working electrode. […] The real and imaginary parts of the impedance were obtained from the currents in phase (faradaic component Ifarad) and 90° out of phase (capacitive component Icap) with the applied voltage, respectively. These currents were measured on a 1 k.OMEGA. resistor in series with the electrodes.
(§1) The impedance and capacitance of the membrane layers on the gold electrodes were determined from the two current components, Ifarad and Icap, using a simplified model for the electrical behaviour of the membrane with the membrane resistance R=Uo /Ifarad in parallel to the membrane capacitance C=Icap /(2πvUo).

Assay [2] deals with T1, 5-HT3 receptor (Bos taurus, UniProt F1N4Y2).
T1 construct: from tissue; host or cells: calf brain, entorhinal cortex and hippocampus; detergent (OPG) solubilised and purified on 5-HT-agarose
T1 sequence (F1N4Y2 29-488): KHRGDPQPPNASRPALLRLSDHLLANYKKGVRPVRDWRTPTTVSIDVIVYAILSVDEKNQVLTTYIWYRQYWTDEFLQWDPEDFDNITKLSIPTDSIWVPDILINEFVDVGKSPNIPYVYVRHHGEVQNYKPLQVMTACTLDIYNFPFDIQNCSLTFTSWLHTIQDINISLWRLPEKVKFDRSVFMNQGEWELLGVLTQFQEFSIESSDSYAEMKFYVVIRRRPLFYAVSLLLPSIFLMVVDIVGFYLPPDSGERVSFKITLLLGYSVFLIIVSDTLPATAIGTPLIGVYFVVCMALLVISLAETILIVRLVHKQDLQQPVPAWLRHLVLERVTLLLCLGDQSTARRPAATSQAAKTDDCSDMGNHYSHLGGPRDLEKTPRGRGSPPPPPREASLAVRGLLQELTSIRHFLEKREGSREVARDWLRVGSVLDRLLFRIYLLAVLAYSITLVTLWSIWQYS
Put plainly: Current responses of gold-supported lipid bilayer sensor with incorporated 5-HT3 receptor during stimulation by agonists, without or with antagonist. It counts as biochemical, calf. The procedure:
A 1 mm^2 gold electrode was cleaned and inserted into the electrochemical cell as described in Example 5. First, 100 μl of the thiolipid/OPG solution (0.7 mM/48 mM in 0.1 M KCl) was added and the adsorption process followed as described in Example 6. After approximately 2 minutes, the solution was completely replaced. The sample was washed several times with 55 mM OGP in 0.1 M KCl.
A receptor-containing solution was prepared as follows: 2 mg (2.9 μmol) of DMPC, 2 mg (2.6 μmol) of POPC (i.e. an approximately 1:1 molar ratio of DMPC: POPC) and 2 mg ([…]) of OPG were ultrasonicated in 1 ml of 0.1 M KCl, until the solution became clear. This solution was mixed with 15 μg of the 5-HT3 receptor (1 mg/ml, in 40 mM OPG and complex buffer "A" as used in Example 4), 100 μl of the receptor-containing solution was placed in the cell. After about 2 minutes, the cell solution was diluted stepwise by the addition of small portions of 0.1 M KCl. Finally, the solution was completely replaced by 0.1 M KCl. The resulting layer was used for experiments within 5 hours at most, then being removed by washing with 55 mM OGP in 0.1 M KCl and formed again using the ice-cooled receptor solution.
50 μl portions of 5-HT solution "B" (20 μM 5-HT in 0.1 M KCl) were added successively to the layer with the incorporated receptor (still connected to the cell containing 500 μl of 0.1 M KCl). An interval of about 50 seconds was left between additions (the capacitive and the faradaic current reaching a constant value).
The construction of the receptor-containing system was performed as described above. Again, 500 μl of 0.1 M KCl was placed in the measurement cell but for stimulation, a solution "C" of 20 μM 1-phenylbiguanide, another agonist, in 0.1 M KCl was used.
The supported lipid bilayer, containing the 5-HT3 receptor, was formed as described in (ii). […] After each addition, the values of the capacitive and the faradaic currents were allowed to stabilize.
A large (geometrical area about 1 cm^2) AgCl-coated Ag wire served as the counter/reference electrode and was fixed at a defined distance from the working electrode. The impedance measurements were made using a two-channel lock-in amplifier (EG&G model 5206) at v=120 Hz, applying Uo =17.5 mV RMS to the electrochemical cell. The real and imaginary parts of the impedance were obtained from the currents in phase (faradaic component Ifarad) and 90° out of phase (capacitive component Icap) with the applied voltage, respectively. These currents were measured on a 1 k.OMEGA. resistor in series with the electrodes.
as §1

Where [3] appears, read: phenylbiguanide 1.82 μM, Experiment 1.
Setting [4] is: phenylbiguanide 1.82 μM, Experiment 2.
Where [5] appears, read: phenylbiguanide 3.33 μM, Experiment 1.
[6] abbreviates: phenylbiguanide 3.33 μM, Experiment 2.
[7] abbreviates: phenylbiguanide 4.62 μM, Experiment 1.
The mark [8] stands for this setting: phenylbiguanide 4.62 μM, Experiment 2.
Setting [9] is: phenylbiguanide 5.71 μM, Experiment 1.
Setting [10] is: phenylbiguanide 5.71 μM, Experiment 2.
[11] abbreviates: phenylbiguanide 6.67 μM, Experiment 1.
Setting [12] is: phenylbiguanide 6.67 μM, Experiment 2.
The mark [13] stands for this setting: phenylbiguanide 7.50 μM, Experiment 1.
Setting [14] is: phenylbiguanide 7.50 μM, Experiment 2.
Where [15] appears, read: phenylbiguanide 8.89 μM, Experiment 1.
Setting [16] is: phenylbiguanide 8.89 μM, Experiment 2.
[17] abbreviates: phenylbiguanide 11.67 μM, Experiment 1.
Where [18] appears, read: phenylbiguanide 11.67 μM, Experiment 2.
Setting [19] is: phenylbiguanide 12.86 μM, Experiment 1.
The mark [20] stands for this setting: phenylbiguanide 12.86 μM, Experiment 2.
Setting [21] is: phenylbiguanide 14.74 μM, Experiment 1.
Where [22] appears, read: phenylbiguanide 14.74 μM, Experiment 2.
[23] abbreviates: phenylbiguanide 10. μM, Experiment 1.
The mark [24] stands for this setting: phenylbiguanide 10. μM, Experiment 2.

As for `NCCc1c[nH]c2ccc(O)cc12` [5-hydroxytryptamine], the “alterations of the electrical properties of the lipid layer without receptor” value in assay [1] is on record as “no alterations of the electrical properties of the pure lipid layer were observed”.
In the case of `CN1C2CCC1CC(OC(=O)c1c[nH]c3ccccc13)C2` (stereo not drawn) [ICS 205-930], the “alterations of the electrical properties of the lipid layer without receptor” value in assay [1] was “No alterations of the electrical properties of the lipid bilayer”. The “5-HT concentration necessary for binding to the receptor, times higher than in the absence of the antagonist” value in assay [2] (in the presence of 10 nM ICS 205-930) is recorded as “about 40 times”.
With `N=C(N)NC(=N)Nc1ccccc1` [1-phenylbiguanide], the Icap current response was determined as 96.5 nA in assay [1] (1-phenylbiguanide 7.5 μM); 96.4 nA in assay [1] (1-phenylbiguanide 14.74 μM); 96.3 nA in assay [2] (setting [3]); 97.3 nA in assay [2] (setting [4]); 97.1 nA in assay [2] (setting [5]); 98.0 nA in assay [2] (setting [6]). The Icap current response came to 97.6 nA in assay [2] (setting [7]); 98.5 nA in assay [2] (setting [8]); 98 nA in assay [2] (setting [9]); 99.2 nA in assay [2] (setting [10]); 98.3 nA in assay [2] (setting [11]); 99.4 nA in assay [2] (setting [12]). Also, the Icap current response in assay [2] (setting [13]) is 98.4 nA; in assay [2] (setting [14]), 99.5 nA; in assay [2] (setting [15]), 98.5 nA; in assay [2] (setting [16]) it was 99.6 nA; in assay [2] (setting [17]), 98.6 nA; in assay [2] (setting [18]), 99.6 nA. For the same molecule, the Icap current response in assay [2] (setting [19]) is 98.6 nA; in assay [2] (setting [20]), 99.6 nA; in assay [2] (setting [21]), 98.6 nA; in assay [2] (setting [22]), 99.6 nA; in assay [2] (setting [23]) it was 98.6 nA; in assay [2] (setting [24]), 99.6 nA. Also, the Ifarad current response came to 20.9 nA in assay [1] (1-phenylbiguanide 7.5 μM); 20.7 nA in assay [1] (1-phenylbiguanide 14.74 μM); 23.6 nA in assay [2] (setting [3]); 22.7 nA in assay [2] (setting [4]); 26.1 nA in assay [2] (setting [5]); 25.0 nA in assay [2] (setting [6]). Also, the Ifarad current response in assay [2] (setting [7]) came out at 27.7 nA; in assay [2] (setting [8]), 26.6 nA; in assay [2] (setting [9]), 28.9 nA; in assay [2] (setting [10]), 28.3 nA; in assay [2] (setting [11]), 29.7 nA; in assay [2] (setting [12]), 29.0 nA. The Ifarad current response in assay [2] (setting [13]) was 30.1 nA; in assay [2] (setting [14]), 29.5 nA; in assay [2] (setting [15]), 30.6 nA; in assay [2] (setting [16]), 29.8 nA; in assay [2] (setting [17]), 31.1 nA; in assay [2] (setting [18]), 30.3 nA. The Ifarad current response in assay [2] (setting [19]) was determined as 31.2 nA; in assay [2] (setting [20]), 30.4 nA; in assay [2] (setting [21]), 31.2 nA; in assay [2] (setting [22]) it was 30.4 nA; in assay [2] (setting [23]), 30.8 nA; in assay [2] (setting [24]) it was 30.0 nA.
